This is an account of results in US20040186170A1, “Benzofuran derivatives, pharmaceutical composition containing the same, and a process for the preparation of the active ingredient” (EGIS GYOGYSZERGYAR, priority 1998, published 2004).

The test system of test [1] is isolated perfused rat heart. Kind of test: TTC prolonging effect in isolated Langendorff rat hearts (global ischemia).
Protocol: Measurement of the cardioprotective effect in ischemic rat heart (Langendorff) preparation
The time lapsed after starting global ischemia until the beginning of contracture (i.e. time to contracture=TTC) is prolonged by several cardioprotective compounds, thus, the effectiveness of the compounds can be examined by measuring TTC.
Male Sprague-Dawley rats weighing 300 to 350 g were injected with 2500 IU (0.5 ml) of heparin i.p. and 10 minutes later the animals were anaesthetized with sodium pentobarbital/5-ethyl-5-(1-methylbutyl)-2,4,6(1H,3H,5H)-pyrimidinetrione sodium salt/ in a dose of 60 mg/kg i.p. The heart was quickly excised, and the aorta was connected to a cannula fixed to a Langendorff apparatus. The heart was perfused at a constant pressure (8000 Pa) with a modified carbogenized Krebs-Henseleit solution. The composition of the solution was the following (in mM): NaCl 118, KCl 4.7, MgSO4 1.6, CaCl2 2.5, NaHCO3 24.88, KH2PO4 1.18, EDTA 0.5, glucose 11. Partial CO2 pressure and pH of the solution were maintained within the physiological limits (pCO2 4000-4650 Pa, pH=7.3-7.45).
A hole was cut in the wall of the left atrium and a water-filled plastic balloon attached to a metal cannula was inserted into the left ventricle. End diastolic pressure of the left ventricle was set to a value between 666-1333 Pa during the equilibration period by changing the volume of the liquid in the balloon, however, later it was not modified.
After a 20 minutes' equilibration period, the hearts were perfused for 10 minutes with the vehicle (0.04% of dimethyl sulfoxide), in case of the control group, or with a solution of the test substance at 10^−6 or 10^−5 M concentration, in case of the treated groups. The activity of the test compound was not examined further when, at the end of the 10 minutes' period, the systolic pressure of the left ventricle was reduced by more than 20%, compared to the control value determined before the treatment.
Global ischemia was initiated by completely shutting off the perfusate flow and carbogenization for 25 minutes. The time period from the beginning of ischemia until the formation of myocardial contracture i.e. an increase of 666 Pa in left ventricular end diastolic pressure (TTC) was measured.
3 parallel experiments were performed with the test compounds at each concentration and parameters of 3 additional vehicle (0.04% dimethyl sulfoxide) treated hearts were measured along with the test substance.
Individual TTC values were averaged, and the effect of the test substances was expressed as a percentage change compared to the vehicle treated group. […] As a reference substance, lemakalim i.e. (3S)-trans-3,4-dihydro-3-hydroxy-2,2-dimethyl-4-(2-oxo-1-pyrrolidinyl)-2H-1-benzpyrane-6-carbonitrile was used.
In the next test the target is T1, 5-HT1A receptor (Rattus norvegicus, UniProt P19327).
T1 sequence (P19327 1-422): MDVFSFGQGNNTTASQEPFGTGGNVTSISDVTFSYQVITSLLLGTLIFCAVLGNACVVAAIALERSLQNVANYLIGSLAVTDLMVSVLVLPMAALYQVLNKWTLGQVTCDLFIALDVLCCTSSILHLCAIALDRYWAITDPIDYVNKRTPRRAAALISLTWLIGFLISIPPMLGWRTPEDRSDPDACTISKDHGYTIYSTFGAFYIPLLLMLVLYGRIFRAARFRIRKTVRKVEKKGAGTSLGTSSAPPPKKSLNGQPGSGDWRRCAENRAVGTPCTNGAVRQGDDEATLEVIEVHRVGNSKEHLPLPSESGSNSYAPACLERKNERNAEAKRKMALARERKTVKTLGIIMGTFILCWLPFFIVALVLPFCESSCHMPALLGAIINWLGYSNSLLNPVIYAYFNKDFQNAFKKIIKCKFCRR
Briefly: 5-HT1A receptor binding assay.

The subject of the next test is Male Sprague-Dawley rats. Kind of test: Elevated plus-maze test on rats. The format is in vivo, rat. Particulars: for MED (in mg/kg) p.o.: 60 minutes prior to the test, based on the time spent in the open arms. As for the experimental part:
Elevated Plus-Maze Test on Rats
The test was carried out according to a modified method of Pelow et al./J. Neurosci. Methods, 14, 149 (1985)/. The elevated plus-maze consists of two open and two 40 cm wall enclosed arms of the same size (50×15 cm) arranged in the shape of a cross. The arms of the same type are opposite to each other. The junction of the four arms forms a central square area (15×15 cm). The apparatus is made of a wooden material elevated to a height of 50 cm and illuminated by a dim light from above. Male Sprague-Dawley rats weighing 220 to 260 g were used for the experiment.
The rats were treated with the test or reference compounds 60 minutes prior to the test. The animals were then placed onto a central square area and were subjected to the test for 5 minutes. The following 4 different parameters were determined:
time spent in the open arms;
time spent in the closed arms;
number of entries into the open arms;
number of entries into the closed arms.
A compound was considered to be effective where significant increase was found either in the time spent in the open arms (in sec) or in the number of entries into the open arms when compared to the control animals (in percentage). Minimum effective doses (MED) were determined based on the time spent in the open arms for each compound examined. Buspirone was used as the reference material.

A further test deals with Male Wistar rats. Kind of test: Anxiolytic effect, Vogel's conflict test. Particulars: half an hour before the examination, tolerated number of electric shocks.
Where [2] appears, read: 10^−5 M, time to contracture, change compared to the vehicle treated group.
Setting [3] is: 10^−6 M, time to contracture, change compared to the vehicle treated group.

For orientation: Ki means the equilibrium dissociation constant of an inhibitor or competing ligand from its target. Read a low Ki as higher affinity.

The structures appear in SMILES notation. Counter-ions that a name gives are not always drawn. Like-named read-outs stand apart in the source and are kept apart here.

Protocol for Male Wistar rats: Determination of the Anxiolytic Effect on the Basis of Vogel's Conflict Test
The anxiolytic effect was examined by the method of Vogel et al./Vogel, J. R., Beer, B., Clody, D. E., Psychopharmacologia (Berl.), 21, 1 (1971)/. Male Wistar rats weighing 180 to 200 g were left to be thirsty for 48 hours and starved for 24 hours before the test. The substances to be examined and the carriers, respectively, were administered to the animals half an hour before the examination. In the test chamber, the rats were allowed to drink from the drinking tube protruding into the chamber. Following every 20th lick, the apparatus emitted an electric shock of 0.7 mA through the drinking tube. During the test lasting for 5 minutes, the number of those electric shocks was registered which the animals accepted in order to quench their thirst. The effect of the compounds was expressed as the increase of the tolerated number of electric shocks in percentage.
Meprobamate/2-methyl-2-propyltri-methylenecarbamate/ was used as the reference substance.

For `COc1ccc(C2(O)CCN(CC(O)COc3cccc4c3OC(C)(C)C4)CC2)cc1` (stereo not drawn) [Example 26, 1-/3-(2,2-Dimethyl-2,3-dihydrobenzofuran-7-yloxy)-2-hydroxypropyl/-4-hydroxy-4-(4-methoxyphenyl)-piperidine], the “TTC change (in %) at 10^−6 M” value in test [1] worked out at 43%. The compound further registered an inhibition constant Ki at 5-HT1A receptor of 3 nM.

`CC1(C)Cc2cccc(OCC(O)CN3CCC(O)(c4ccc(Cl)cc4)CC3)c2O1` (stereo not drawn) [Example 14, 1-/3-(2,2-Dimethyl-2,3-dihydrobenzofuran-7-yloxy)-2-hydroxypropyl/-4-hydroxy-4-(4-chloro-phenyl)piperidine] registered a Ki at 5-HT1A receptor of 10 nM.

As to `O=C1CC2(CCCC2)CC(=O)N1CCCCN1CCN(c2ncccn2)CC1` [buspirone, reference compound], the “MED (in mg/kg) p.o.” value in the test with Male Sprague-Dawley rats turned out to be 3 mg/kg.

For `CC1(C)Cc2cccc(OCC(O)CN3CCC(O)(c4ccc(F)cc4)CC3)c2O1` (stereo not drawn) [Example 16, 1-/3-(2,2-Dimethyl-2,3-dihydrobenzofuran-7-yloxy)-2-hydroxypropyl/-4-hydroxy-4-(4-fluoro-phenyl)piperidine], in test [1], the “TTC change (in %) at 10^−5 M” value is listed as 78% and the “TTC change (in %) at 10^−6 M” value worked out at 5%. For the same compound, in the test with Male Sprague-Dawley rats, the “MED (in mg/kg) p.o.” value turned out to be 1 mg/kg. Moreover, the inhibition constant Ki at 5-HT1A receptor stood at 3 nM.

Consider `Cc1ccc(C2(O)CCN(CC(O)COc3cccc4c3OC(C)(C)C4)CC2)cc1` (stereo not drawn) [Example 30, 1-/3-(2,2-Dimethyl-2,3-dihydrobenzofuran-7-yloxy)-2-hydroxypropyl/-4-hydroxy-4-(4-methyl-phenyl)piperidine hydrochloride], for which, at 5-HT1A receptor, the Ki stood at 5 nM.

Regarding `CC1(C)Cc2cccc(OCC(O)CN3CCN(c4ccc(Cl)cc4)CC3)c2O1` (stereo not drawn) [Example 73, 1-/3-(2,2-Dimethyl-2,3-dihydrobenzofuran-7-yloxy)-2-hydroxypropyl/-4-(4-chlorophenyl)-piperazine], in test [1] (setting [2]), the “TTC change (in %) at 10^−5 M” value is reported as 49%. Further, the “TTC change (in %) at 10^−6 M” value in test [1] (setting [3]) came out at 19%.

On to `CC1(C)Cc2cccc(OCC(O)CN3CCN(c4ccc(F)cc4)CC3)c2O1` (stereo not drawn) [Example 63, 1-/3-(2,2-Dimethyl-2,3-dihydrobenzofuran-7-yloxy)-2-hydroxypropyl/-4-(4-fluorophenyl)-piperazine], for which the “TTC change (in %) at 10^−5 M” value in test [1] (setting [2]) stood at 111%. The “TTC change (in %) at 10^−6 M” value in test [1] (setting [3]) is listed as −3%.

Take `CCCC(C)(COC(N)=O)COC(N)=O` [meprobamate, 2-methyl-2-propyltri-methylenecarbamate, reference compound]: the “MED in mg/kg ip.” value with Male Wistar rats came out at 50 mg/kg.

For the compound `CC1(C)Cc2cccc(OCC(O)CN3CCC(O)(c4cccc(C(F)(F)F)c4)CC3)c2O1` (stereo not drawn) [Example 9, 1-/3-(2,2-Dimethyl-2,3-dihydrobenzofuran-7-yloxy)-2-hydroxypropyl/-4-hydroxy-4-(3-tri-fluoromethylphenyl)piperidine hydrochloride], in test [1], the “TTC change (in %) at 10^−6 M” value turned out to be 90% and the “TTC prolongation compared with lemakalim” value is listed as “surpasses remarkably also the effect of lemakalim”. On 5-HT1A receptor, the Ki came out at 20 nM.

`COc1ccc(N2CCN(CC(O)COc3cccc4c3OC(C)(C)C4)CC2)cc1` (stereo not drawn) [Example 68, 1-/3-(2,2-Dimethyl-2,3-dihydrobenzofuran-7-yloxy)-2-hydroxypropyl/-4-(4-methoxyphenyl)-piperazine]: the “TTC change (in %) at 10^−5 M” value in test [1] (setting [2]) came to 43%. Also, in test [1] (setting [3]), the “TTC change (in %) at 10^−6 M” value came out at 0%. Besides, the “MED in mg/kg ip.” value in the test with Male Wistar rats was 20 mg/kg.

For the compound `CC1(C)Cc2cccc(OCC(O)CN3CCN(c4cccc(F)c4)CC3)c2O1` (stereo not drawn) [Example 66, 1-/3-(2,2-Dimethyl-2,3-dihydrobenzofuran-7-yloxy)-2-hydroxypropyl/-4-(3-fluorophenyl)-piperazine], the “TTC change (in %) at 10^−5 M” value in test [1] (setting [2]) is reported as 66%. For the same compound, in test [1] (setting [3]), the “TTC change (in %) at 10^−6 M” value was found to be 5%.

With `CC1(C)Cc2cccc(OCC(O)CN3CC=C(c4cccc(C(F)(F)F)c4)CC3)c2O1.Cl` (stereo not drawn) [Example 8, 1-/3-(2,2-Dimethyl-2,3-dihydrobenzofuran-7-yloxy)-2-hydroxypropyl/-4-(3-trifluoromethyl-phenyl)-1,2,3,6-tetrahydropyridine hydrochloride], the “TTC change (in %) at 10^−5 M” value in test [1] (setting [2]) is 90%. The “TTC change (in %) at 10^−6 M” value in test [1] (setting [3]) came out at 43%.

In the case of `COc1ccc2cc(C3CCN(CC(O)COc4cccc5c4OC(C)(C)C5)CC3)ccc2c1.Cl` (stereo not drawn) [Example 23, 1-/3-(2,2-Dimethyl-2,3-dihydrobenzofuran-7-yloxy)-2-hydroxypropyl/-4-(6-methoxynaphth-2-yl)piperidine hydrochloride], the “MED (in mg/kg) p.o.” value in the test with Male Sprague-Dawley rats is listed as 3 mg/kg.

Take `COc1cccc(C2(O)CCN(CC(O)COc3cccc4c3OC(C)(C)C4)CC2)c1` (stereo not drawn) [Example 25, 1-/3-(2,2-Dimethyl-2,3-dihydrobenzofuran-7-yloxy)-2-hydroxypropyl/-4-hydroxy-4-(3-methoxyphenyl)-piperidine hydrochloride]: in test [1], the “TTC change (in %) at 10^−5 M” value is 59% and the “TTC change (in %) at 10^−6 M” value was determined as 2%. Besides, in the test with Male Sprague-Dawley rats (in words), the “anxiolytic effect compared with buspirone” value is given as “superior by one order of magnitude to buspirone”. For the same compound, the “MED (in mg/kg) p.o.” value in the test on Male Sprague-Dawley rats came to 0.3 mg/kg. For the same compound, at 5-HT1A receptor, the affinity, expressed as Ki, was 0.7 nM.

Consider `CC1(C)Cc2cccc(OCC(O)CN3CCC(O)(c4ccccc4)CC3)c2O1` (stereo not drawn) [Example 20, 1-/3-(2,2-Dimethyl-2,3-dihydrobenzofuran-7-yloxy)-2-hydroxypropyl/-4-hydroxy-4-phenyl-piperidine hydrochloride], for which, in test [1], the “TTC change (in %) at 10^−5 M” value came to 65% and the “TTC change (in %) at 10^−6 M” value is reported as 18%. This compound showed an inhibitory constant (Ki) at 5-HT1A receptor of 6 nM.

Regarding `CC1(C)Cc2cccc(OCC(O)CN3CCC(O)(c4cccc(Cl)c4)CC3)c2O1` (stereo not drawn) [Example 24, 1-/3-(2,2-Dimethyl-2,3-dihydrobenzofuran-7-yloxy)-2-hydroxypropyl/-4-hydroxy-4-(3-chloro-phenyl)-piperidine hydrochloride], the “TTC change (in %) at 10^−6 M” value in test [1] was 47%. Also, in the test on Male Sprague-Dawley rats, the “MED (in mg/kg) p.o.” value worked out at 3 mg/kg. The compound also yielded a Ki at 5-HT1A receptor of 12 nM.

Turning to `CC1(C)Oc2ccc(C#N)cc2[C@@H](N2CCCC2=O)[C@@H]1O` [lemakalim, (3S)-trans-3,4-dihydro-3-hydroxy-2,2-dimethyl-4-(2-oxo-1-pyrrolidinyl)-2H-1-benzpyrane-6-carbonitrile, reference compound], the “TTC change (in %) at 10^−5 M” value in test [1] (setting [2]) is 55%. Further, in test [1] (setting [3]), the “TTC change (in %) at 10^−6 M” value is 20%.

As to `COc1cccc(N2CCN(CC(O)COc3cccc4c3OC(C)(C)C4)CC2)c1.Cl.Cl` (stereo not drawn) [Example 76, 1-/3-(2,2-Dimethyl-2,3-dihydrobenzofuran-7-yloxy)-2-hydroxypropyl/-4-(3-methoxyphenyl)-piperazine dihydrochloride], the “TTC change (in %) at 10^−5 M” value in test [1] (setting [2]) was determined as 80%. In addition, the “TTC change (in %) at 10^−6 M” value in test [1] (setting [3]) came out at 25%.

In the case of `CC1(C)Cc2cccc(OCC(O)CN3CCC(C#N)(c4ccccc4)CC3)c2O1.Cl` (stereo not drawn) [Example 41, 1-/3-(2,2-Dimethyl-2,3-dihydrobenzofuran-7-yloxy)-2-hydroxypropyl/-4-cyano-4-phenyl-piperidine hydrochloride], in test [1], the “TTC change (in %) at 10^−5 M” value turned out to be 53% and the “TTC change (in %) at 10^−6 M” value was found to be 32%.
